Test results reported in patent US20260022142A1, “MACROCYCLIC IMMUNOMODULATORS” (Bristol-Myers Squibb Company, priority 2022, published 2026).
Bridge positions count the residues as written; N and C are the ends. Square brackets hold non-standard residues; d marks the D form. Peptide text beside a SMILES is read from it. * marks the point of attachment. Tyr(3,5-F2) = N[C@@H](Cc1cc(F)c(O)c(F)c1)C(=O)O; Tyr(3-Cl) = N[C@@H](Cc1ccc(O)c(Cl)c1)C(=O)O; Bip = N[C@@H](Cc1ccc(-c2ccccc2)cc1)C(=O)O; Phe(3-CN) = N#Cc1cccc(C[C@H](N)C(=O)O)c1; Phe(4-CN) = N#Cc1ccc(C[C@H](N)C(=O)O)cc1; Phe(3-Me) = Cc1cccc(C[C@H](N)C(=O)O)c1; Phe(4-F) = N[C@@H](Cc1ccc(F)cc1)C(=O)O; Phe(4-Me) = Cc1ccc(C[C@H](N)C(=O)O)cc1; mTyr = N[C@@H](Cc1cccc(O)c1)C(=O)O; 4Pal = N[C@@H](Cc1ccncc1)C(=O)O; Cha = N[C@@H](CC1CCCCC1)C(=O)O; dDab = NCC[C@@H](N)C(=O)O; Carboxymethyl = O=C(O)C*; Orn = NCCC[C@H](N)C(=O)O; Aun = NCCCCCCCCCCC(=O)O; Dab = NCC[C@H](N)C(=O)O; Dap = NC[C@H](N)C(=O)O; AEEA = NCCOCCOCC(=O)O; Ac3c = NC1(C(=O)O)CC1

Molecular target: T1, PD-1/PD-L1 interaction (PE-labeled human PD-L1-Ig binding to Jurkat cell line over-expressing human PD-1) (Homo sapiens, UniProt Q15116)
T1 construct: expressed in transfected cells; host or cells: Jurkat
T1 sequence (Q15116 25-288): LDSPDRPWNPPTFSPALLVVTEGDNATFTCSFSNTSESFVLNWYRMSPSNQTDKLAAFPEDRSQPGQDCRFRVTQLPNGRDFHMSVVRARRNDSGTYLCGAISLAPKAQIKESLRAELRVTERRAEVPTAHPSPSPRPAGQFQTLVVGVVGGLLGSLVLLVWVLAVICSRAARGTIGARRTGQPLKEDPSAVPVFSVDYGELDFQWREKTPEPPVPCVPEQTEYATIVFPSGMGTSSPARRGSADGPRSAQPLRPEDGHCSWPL
Assay: Jurkat-PD-1 Cell Binding High-Content Screening Assay (CBA)
Assay type: cell-based
Conditions: Jurkat cell line over-expressing human PD-1; PE-labeled PD-L1-Ig 20 nM final; read-out: Jurkat hPD1-PDL1 IC50
How it was run: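 First, compound is added to PD-1-expressing Jurkat cells in serum-containing DMEM and left 2 h at 37° C. Next, PE-conjugated PD-L1-Ig is introduced at 20 nM final concentration for 1 hour. Finally, cells are fixed in 4% paraformaldehyde with Hoechst 33342, washed and imaged.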

IC50 [nM] | SMILES
11.6 | Cc1cccc(C[C@@H]2NC(=O)[C@H](CC(=O)O)NC(=O)[C@H](Cc3ccc(OCC(=O)O)cc3)NC(=O)[C@H](CN)NC(=O)CSC[C@@H](C(=O)N[C@@H](CCN)C(=O)NCCOCCOCC(=O)NCCCCCCCCCCC(=O)O)NC(=O)[C@H](CCCN)NC(=O)[C@H](C(C)C)NC(=O)[C@H](CC3CCCCC3)NC(=O)[C@H](CCN)NC(=O)[C@@H](CC(C)C)NC(=O)[C@H](CCCN)NC(=O)[C@H](Cc3ccc(O)cc3)NC(=O)[C@H](Cc3ccc(-c4ccccc4)cc3)NC(=O)[C@H](Cc3ccc(F)cc3)NC2=O)c1 [Compound 2070] ({CH2CO}-[Dap]Y(Carboxymethyl)D[Phe(3-Me)][Phe(4-F)][Bip]Y[Orn][dL][Dab][Cha]V[Orn]C[Dab][AEEA][Aun]-OH; thioether N-14)
4.8 | Cc1cccc(C[C@@H]2NC(=O)[C@H](CC(=O)O)NC(=O)[C@H](Cc3ccc(OCC(=O)O)cc3)NC(=O)[C@H](CN)NC(=O)CSC[C@@H](C(=O)N[C@@H](CCN)C(=O)NCCOCCOCC(=O)NCCCCCCCCCCC(=O)O)NC(=O)[C@H](CCCN)NC(=O)[C@H](C(C)C)NC(=O)[C@H](CC3CCCCC3)NC(=O)[C@H](CCN)NC(=O)[C@@H](CC(C)C)NC(=O)[C@H](CCCN)NC(=O)[C@H](Cc3ccc(O)cc3)NC(=O)[C@H](Cc3ccc(-c4ccccc4)cc3)NC(=O)[C@H](Cc3ccc(C#N)cc3)NC2=O)c1 [Compound 2071] ({CH2CO}-[Dap]Y(Carboxymethyl)D[Phe(3-Me)][Phe(4-CN)][Bip]Y[Orn][dL][Dab][Cha]V[Orn]C[Dab][AEEA][Aun]-OH; thioether N-14)
8.5 | Cc1cccc(C[C@@H]2NC(=O)[C@H](CC(=O)O)NC(=O)[C@H](Cc3ccc(OCC(=O)O)cc3)NC(=O)[C@H](CN)NC(=O)CSC[C@@H](C(=O)N[C@@H](CCN)C(=O)NCCOCCOCC(=O)NCCCCCCCCCCC(=O)O)NC(=O)[C@H](CCCN)NC(=O)[C@H](C(C)C)NC(=O)[C@H](CC3CCCCC3)NC(=O)[C@H](CCN)NC(=O)[C@@H](CC(C)C)NC(=O)[C@H](CCCN)NC(=O)[C@H](Cc3ccc(O)cc3)NC(=O)[C@H](Cc3ccc(-c4ccccc4)cc3)NC(=O)[C@H](Cc3cccc(C#N)c3)NC2=O)c1 [Compound 2072] ({CH2CO}-[Dap]Y(Carboxymethyl)D[Phe(3-Me)][Phe(3-CN)][Bip]Y[Orn][dL][Dab][Cha]V[Orn]C[Dab][AEEA][Aun]-OH; thioether N-14)
8.9 | Cc1cccc(C[C@@H]2NC(=O)[C@H](CC(=O)O)NC(=O)[C@H](Cc3ccc(OCC(=O)O)cc3)NC(=O)[C@H](CN)NC(=O)CSC[C@@H](C(=O)N[C@@H](CCN)C(=O)NCCOCCOCC(=O)NCCCCCCCCCCC(=O)O)NC(=O)[C@H](CCCN)NC(=O)[C@H](C(C)C)NC(=O)[C@H](CC3CCCCC3)NC(=O)[C@H](CCN)NC(=O)[C@@H](CC(C)C)NC(=O)[C@H](CCCN)NC(=O)[C@H](Cc3ccc(O)cc3)NC(=O)[C@H](Cc3ccc(-c4ccccc4)cc3)NC(=O)[C@H](Cc3ccncc3)NC2=O)c1 [Compound 2073] ({CH2CO}-[Dap]Y(Carboxymethyl)D[Phe(3-Me)][4Pal][Bip]Y[Orn][dL][Dab][Cha]V[Orn]C[Dab][AEEA][Aun]-OH; thioether N-14)
5.5 | Cc1ccc(C[C@@H]2NC(=O)[C@H](Cc3cccc(C)c3)NC(=O)[C@H](CC(=O)O)NC(=O)[C@H](Cc3ccc(OCC(=O)O)cc3)NC(=O)[C@H](CN)NC(=O)CSC[C@@H](C(=O)N[C@@H](CCN)C(=O)NCCOCCOCC(=O)NCCCCCCCCCCC(=O)O)NC(=O)[C@H](CCCN)NC(=O)[C@H](C(C)C)NC(=O)[C@H](CC3CCCCC3)NC(=O)[C@H](CCN)NC(=O)[C@@H](CC(C)C)NC(=O)[C@H](CCCN)NC(=O)[C@H](Cc3ccc(O)cc3)NC(=O)[C@H](Cc3ccc(-c4ccccc4)cc3)NC2=O)cc1 [Compound 2074] ({CH2CO}-[Dap]Y(Carboxymethyl)D[Phe(3-Me)][Phe(4-Me)][Bip]Y[Orn][dL][Dab][Cha]V[Orn]C[Dab][AEEA][Aun]-OH; thioether N-14)
14.3 | Cc1cccc(C[C@@H]2NC(=O)[C@H](CC(=O)O)NC(=O)[C@H](Cc3ccc(OCC(=O)O)cc3)NC(=O)[C@H](CN)NC(=O)CSC[C@@H](C(=O)N[C@@H](CCN)C(=O)NCCOCCOCC(=O)NCCCCCCCCCCC(=O)O)NC(=O)[C@H](CCCN)NC(=O)[C@H](C(C)C)NC(=O)[C@H](CC3CCCCC3)NC(=O)[C@H](CCN)NC(=O)[C@@H](CC(C)C)NC(=O)[C@H](CCCN)NC(=O)[C@H](Cc3ccc(O)cc3)NC(=O)[C@H](Cc3ccc(-c4ccccc4)cc3)NC(=O)[C@H](Cc3ccc(O)c(Cl)c3)NC2=O)c1 [Compound 2075] ({CH2CO}-[Dap]Y(Carboxymethyl)D[Phe(3-Me)][Tyr(3-Cl)][Bip]Y[Orn][dL][Dab][Cha]V[Orn]C[Dab][AEEA][Aun]-OH; thioether N-14)
8.4 | Cc1cccc(C[C@@H]2NC(=O)[C@H](CC(=O)O)NC(=O)[C@H](Cc3ccc(OCC(=O)O)cc3)NC(=O)[C@H](CN)NC(=O)CSC[C@@H](C(=O)N[C@@H](CCN)C(=O)NCCOCCOCC(=O)NCCCCCCCCCCC(=O)O)NC(=O)[C@H](CCCN)NC(=O)[C@H](C(C)C)NC(=O)[C@H](CC3CCCCC3)NC(=O)[C@H](CCN)NC(=O)[C@@H](CC(C)C)NC(=O)[C@H](CCCN)NC(=O)[C@H](Cc3ccc(O)cc3)NC(=O)[C@H](Cc3ccc(-c4ccccc4)cc3)NC(=O)[C@H](Cc3cc(F)c(O)c(F)c3)NC2=O)c1 [Compound 2076] ({CH2CO}-[Dap]Y(Carboxymethyl)D[Phe(3-Me)][Tyr(3,5-F2)][Bip]Y[Orn][dL][Dab][Cha]V[Orn]C[Dab][AEEA][Aun]-OH; thioether N-14)
6.3 | Cc1cccc(C[C@@H]2NC(=O)[C@H](CC(=O)O)NC(=O)[C@H](Cc3ccc(OCC(=O)O)cc3)NC(=O)[C@H](CN)NC(=O)CSC[C@@H](C(=O)NC3(C(=O)NCCOCCOCC(=O)NCCCCCCCCCCC(=O)O)CC3)NC(=O)[C@H](CCCN)NC(=O)[C@H](C(C)C)NC(=O)[C@H](CC3CCCCC3)NC(=O)[C@H](CCN)NC(=O)[C@@H](CC(C)C)NC(=O)[C@H](CCCN)NC(=O)[C@H](Cc3ccc(O)cc3)NC(=O)[C@H](Cc3ccc(-c4ccccc4)cc3)NC(=O)[C@H](Cc3ccc(O)cc3)NC2=O)c1 [Compound 2077] ({CH2CO}-[Dap]Y(Carboxymethyl)D[Phe(3-Me)]Y[Bip]Y[Orn][dL][Dab][Cha]V[Orn]C[Ac3c][AEEA][Aun]-OH; thioether N-14)
3.9 | Cc1cccc(C[C@@H]2NC(=O)[C@H](CC(=O)O)NC(=O)[C@H](Cc3ccc(OCC(=O)O)cc3)NC(=O)[C@H](Cc3ccc(OCC(=O)O)cc3)NC(=O)CSC[C@@H](C(=O)NC3(C(=O)NCCOCCOCC(=O)NCCCCCCCCCCC(=O)O)CC3)NC(=O)[C@H](CCCN)NC(=O)[C@H](C(C)C)NC(=O)[C@H](CC3CCCCC3)NC(=O)[C@H](CCN)NC(=O)[C@@H](CC(C)C)NC(=O)[C@H](CCCN)NC(=O)[C@H](Cc3ccc(O)cc3)NC(=O)[C@H](Cc3ccc(-c4ccccc4)cc3)NC(=O)[C@H](Cc3ccc(O)cc3)NC2=O)c1 [Compound 2078] ({CH2CO}-Y(Carboxymethyl)Y(Carboxymethyl)D[Phe(3-Me)]Y[Bip]Y[Orn][dL][Dab][Cha]V[Orn]C[Ac3c][AEEA][Aun]-OH; thioether N-14)
245 | CC(C)C[C@H]1NC(=O)[C@H](CCCN)NC(=O)[C@H](Cc2ccc(O)cc2)NC(=O)[C@H](Cc2ccc(-c3ccccc3)cc2)NC(=O)[C@H](Cc2ccc(O)cc2)NC(=O)[C@H](Cc2cccc(O)c2)NC(=O)[C@H](CC(=O)O)NC(=O)[C@H](Cc2ccc(OCC(=O)O)cc2)NC(=O)[C@H](CN)NC(=O)CSC[C@@H](C(=O)N[C@@H](CCN)C(=O)NCCCCCCCCCCC(=O)O)NC(=O)[C@@H](CCN)NC(=O)[C@H](C(C)C)NC(=O)[C@H](CC2CCCCC2)NC(=O)[C@H](CCN)NC1=O [Compound 2079] ({CH2CO}-[Dap]Y(Carboxymethyl)D[mTyr]Y[Bip]Y[Orn][dL][Dab][Cha]V[dDab]C[Dab][Aun]-OH; thioether N-14)
218 | CC(C)C[C@H]1NC(=O)[C@H](CCN)NC(=O)[C@H](Cc2ccc(O)cc2)NC(=O)[C@H](Cc2ccc(-c3ccccc3)cc2)NC(=O)[C@H](Cc2ccc(O)cc2)NC(=O)[C@H](Cc2cccc(O)c2)NC(=O)[C@H](CC(=O)O)NC(=O)[C@H](Cc2ccc(OCC(=O)O)cc2)NC(=O)[C@H](CN)NC(=O)CSC[C@@H](C(=O)N[C@@H](CCN)C(=O)NCCCCCCCCCCC(=O)O)NC(=O)[C@@H](CCN)NC(=O)[C@H](C(C)C)NC(=O)[C@H](CC2CCCCC2)NC(=O)[C@H](CCN)NC1=O [Compound 2080] ({CH2CO}-[Dap]Y(Carboxymethyl)D[mTyr]Y[Bip]Y[Dab][dL][Dab][Cha]V[dDab]C[Dab][Aun]-OH; thioether N-14)
11.7 | Cc1cccc(C[C@@H]2NC(=O)[C@H](CC(=O)O)NC(=O)[C@H](Cc3ccc(OCC(=O)O)cc3)NC(=O)[C@H](CCCNC(=N)N)NC(=O)CSC[C@@H](C(=O)N[C@@H](CCN)C(=O)NCCCCCCCCCCC(=O)O)NC(=O)[C@H]([C@@H](C)O)NC(=O)[C@H](C(C)C)NC(=O)[C@H](CC3CCCCC3)NC(=O)[C@H](CCN)NC(=O)[C@@H](CC(C)C)NC(=O)[C@H](CCCN)NC(=O)[C@H](Cc3ccc(OCC(=O)O)cc3)NC(=O)[C@H](Cc3ccc(-c4ccccc4)cc3)NC(=O)[C@H](Cc3ccc(O)cc3)NC2=O)c1 [Compound 2081] ({CH2CO}-RY(Carboxymethyl)D[Phe(3-Me)]Y[Bip]Y(Carboxymethyl)[Orn][dL][Dab][Cha]VTC[Dab][Aun]-OH; thioether N-14)
22.7 | Cc1cccc(C[C@@H]2NC(=O)[C@H](CC(=O)O)NC(=O)[C@H](Cc3ccc(OCC(=O)O)cc3)NC(=O)[C@H](CCCNC(=N)N)NC(=O)CSC[C@@H](C(=O)N[C@@H](CCN)C(=O)NCCCCCCCCCCC(=O)O)NC(=O)[C@H](CO)NC(=O)[C@H](C(C)C)NC(=O)[C@H](CC3CCCCC3)NC(=O)[C@H](CCN)NC(=O)[C@@H](CC(C)C)NC(=O)[C@H](CCCN)NC(=O)[C@H](Cc3ccc(OCC(=O)O)cc3)NC(=O)[C@H](Cc3ccc(-c4ccccc4)cc3)NC(=O)[C@H](Cc3ccc(O)cc3)NC2=O)c1 [Compound 2082] ({CH2CO}-RY(Carboxymethyl)D[Phe(3-Me)]Y[Bip]Y(Carboxymethyl)[Orn][dL][Dab][Cha]VSC[Dab][Aun]-OH; thioether N-14)
